Experimental data: patent US10183011B2, “Anti-depression compounds” (Board of Regents of the University of Texas System, priority 2009, dated 2019)

Legend:
U2OS cells = test: Calcium ionophore A23187-induced loss of mitochondrial membrane potential (TMRM dye release); assay type: cell-based; conditions: TMRM dye
Text: FIG. 22A, FIG. 22B, FIG. 22C, FIG. 22D, FIG. 22E and FIG. 22F: Example 45 Compound Preserves Mitochondrial Membrane Potential in Parallel to Proneurogenic Activity U2OS cells were loaded with tetramethylrhodamine methyl ester (TMRM) dye and then exposed to the calcium ionophore A23187 either in the presence or absence of test compounds. Example 45 Compound (FIG. 22A) preserved mitochondrial membrane potential following exposure to the calcium ionophore A23187 in a dose-dependent manner. The protective effect of P7C3 was enantiomeric specific. […] Each compound was evaluated in triplicate with similar results.
Extensive evidence pioneered by the laboratory of Xiaodong Wang has shown that an intrinsic pathway leading to programmed cell death emanates from mitochondria (Liu et al., Cell 1996, 86, 147-157; Yang et al., Science 1997, 275, 1129-1132). With the help of the Wang lab, assays were established to test whether Example 45 Compound might protect mitochondria from calcium-induced dissolution (Distelmaier et al., Cytometry A 2008, 73, 129-138). Tetramethylrhodamine methyl ester (TMRM) is a cell-permeant, cationic red-orange fluorescent dye that is readily sequestered by active mitochondria. When loaded with TMRM dye, vehicle-only treated cells released the dye within 15 minutes of exposure to the calcium ionophore A23187. By contrast, dye release was prevented in cells exposed to as little as […] of Example 45 Compound (FIG. 18A).
Since P7C3 ameliorates the death of newborn neurons in the dentate gyrus in living mice, it is possible that its function might relate to mitochondrial integrity. Assays were established to test whether P7C3 might protect cultured U2OS cells from calcium-induced mitochondrial dissolution (Distelmaier et al., Cytometry A 2008, 73, 129-138). Tetramethylrhodamine methylester (TMRM) dye is sequestered by active mitochondria, and, when loaded with TMRM, vehicle-treated cells released the dye within 15 rain of exposure to the calcium ionophor A23 187.

[1] = system: cultured primary cortical neurons; test: Mitochondrial membrane potential (TMRM) after A23187 in cultured primary cortical neurons; assay type: cell-based; conditions: rat E14 cortical neurons
Text: (§1) FIG. 23: Example 45 Compound Preserves Mitochondrial Membrane Potential in Cultured Primary Cortical Neurons. Cortical neurons cultures from rats on embryonic day 14 were loaded with tetramethylrhodamine methyl ester (TMRM) dye after 6 days of maturation. […] The remaining panels are from cells that were exposed to the calcium ionophore A23187 at time zero. With vehicle-alone, cortical neuron mitochondrial membrane potential was rapidly lost after exposure to the ionophore. […] Results shown are representative of 10 fields analyzed in each of 2 experimental runs for all conditions.
as §1, with “It was also examined whether” for “FIG. 23:”, “preserves mitochondrial membrane potential” for “Preserves Mitochondrial Membrane Potential”, “cultured primary cortical neurons (FIG. 23).” for “Cultured Primary Cortical Neurons.”

[2] = system: neural precursor cells in the subgranular zone of the dentate gyrus; test: In vivo pro-neurogenic efficacy/neuroprotection assay: intracerebroventricular infusion, BrdU incorporation in the dentate gyrus; parameters: species or system mouse (C57/Bl6); conditions: direct administration into the brain via Alzet minipumps for one week, 10 μM unless stated
Experimental: Compounds were evaluated for pro-neurogenic efficacy/neuroprotection in our standard in vivo assay at 10 μM concentration in four 12 week old adult male C57/Bl6 mice.
In an effort to identify compounds that might stimulate the birth of new neurons, or protect newborn neurons from cell death, a library of 1,000 compounds was screened using an in vivo assay. In the initial screen, compounds were randomly pooled into groups often and administered intracerebroventricularly at a constant rate over seven days into the left lateral ventricle of living mice via Alzet osmotic mini-pumps. Compounds were administered at a concentration of 10 μM for each molecule, making a total solute concentration of 100 μM. After seven days of infusion at a constant rate of 0.5 μL/hour, a total of 84 μL of volume will have left the pump (0.00084 μMoles) and entered the cerebrospinal fluid. The average volume of a brain from a 12 week old male, C57/B6 mouse in our study is 500 mm^3. […] Under these conditions, at the end of one week of infusion each compound would be present at 1.7 μMolar concentration. Since the actual amount of chemical compound in the brain is likely to be only a fraction of this predicted level, it is reasonable to estimate that compounds were administered at mid to low-nanomolar concentrations.
During compound infusion, animals were intraperitoneally (IP) injected daily with the thymidine analog, bromodeoxyuridine (BrdU), as a means of scoring the birth and survival of proliferating neural precursor cells in the hippocampus. Because both social interaction and voluntary exercise are known to stimulate hippocampal neurogenesis, mice were housed individually without access to running wheels throughout the screening period. Following the week-long period of compound administration, animals were perfused and sacrificed. Dissected brain tissue was fixed, embedded, sectioned, stained with antibodies to BrdU, and evaluated by light microcopy as a means of quantifying neurogenesis and survival of newborn neural precursor cells localized to the subgranular layer of the dentate gyrus on the brain hemisphere contralateral to the side of mini-pump cannulation. Every fifth section throughout the entire rostral-caudal extent of the hippocampus was analyzed, and the total number of BrdU+ cells was normalized against the measured volume of the dentate gyrus. Because both increased proliferation and survival of newborn neurons are important screening parameters, the screen was conducted over seven days in order to cast a wide net to detect molecules that might augment either process. […] Intracranial infusions of either fibroblast growth factor 2 (FGF-2) or artificial cerebral spinal fluid (aCSF) vehicle via the same, week-long protocol were employed as positive and negative controls. There was no difference in the number of BrdU-labeled cells in the dentate gyrus between mice subjected to surgical pump implantation and infusion with vehicle, and mice having had no surgery (FIG. 2). This confirmed the validity of the in vivo approach to assess the ability of intracerebroventricularly infused compounds to enhance hippocampal neurogenesis in the contralateral hemisphere.
In order to further study Example 45 Compound, an in vivo structure activity relationship (SAR) study was conducted using 37 chemical derivatives of the compound for pro-neurogenic activity via direct administration into the brain of adult mice via Alzet minipumps. Compounds were administered for one week at 10 uM into 4 mice per compound, along with daily IP injections of BrdU. Following compound administration, animals were perfused, sacrificed and subjected to sectioning, staining and light microscopy in order to monitor hippocampal neurogenesis localized to the subgranular layer of the dentate gyrus. Roughly 10% of the variant compounds retained pro-neurogenic activity indistinguishable from the parent compound. […]

Solubility = assay type: physicochemical
[3] = system: neural precursor cells in the subgranular zone of the dentate gyrus; conditions: dosed intracranially as a 10 micromolar solution; MacMillan et al., J Am. Chem. Soc. 2011; cited from earlier work
[4] = system: hippocampal neurogenesis in the DG; test: Comparison of P7C3 compounds and antidepressant drugs: DG BrdU labeling after i.c.v. infusion; assay type: in vivo, mouse; conditions: 10 μM i.c.v. for 7 days
Text: The neuroprotective efficacies of both P7C3 and P7C3-A20 were next compared to currently marketed antidepressant medications, using screening conditions identical to those by which P7C3 was originally discovered. This experiment was based on the antidepressant actions of P7C3 and P7C3-A20 characterized here, and the dependence on hippocampal neurogenesis for behavioral efficacy of some marketed antidepressant medications in mice.
Proneurogenic efficacies in the DG of P7C3 and P7C3A20 were compared to those of vehicle (artificial cerebrospinal fluid) and several marketed antidepressant compounds (Sigma-Aldrich, St. Louis, Mo.) according to established methods. In brief, mice were housed individually in cages without running wheels or any form of environmental enrichment, in order to create an environment predicted to have as low of a baseline level of hippocampal neurogenesis as possible. Compounds (10 μM, i.c.v.) were administered for 7 days via subcutaneously implanted Alzet osmotic minipumps connected to a cannula directed into the left lateral ventricle, with implantation day designated as day 0. Starting on day 1, mice also received daily injections of BrdU (50 mg/kg, i.p.) at 9 am daily, for 6 days. Twenty four hours after the sixth BrdU injection, mice were transcardially perfused as described above.

Compound	preservation of mitochondrial membrane potential (U2OS cells)	increase of DG neurogenesis (BrdU labeling) over vehicle [4]	other results
COc1cccc(NCC(O)Cn2c3ccc(Br)cc3c3cc(Br)ccc32)c1 (single isomer, unassigned) [Example 1b, 1-(3,6-Dibromo-9H-carbazol-9-yl)-3-(3-methoxyphenylamino)-propan-2-ol]	Preservation of mitochondrial membrane potential in this assay was observed		
Cc1cc(C)n(CC(O)Cn2c3ccc(Br)cc3c3cc(Br)ccc32)n1 (centres unmarked) [Example 33, 1-(3,6-dibromo-9H-carbazol-9-yl)-3-(3,5-dimethyl-1H-pyrazol-1-yl)propan-2-ol]	displayed less protective effect		preservation of mitochondrial membrane potential [1]: less effective in preserving mitochondrial membrane potential at any dose tested
COc1cccc(NCC(O)Cn2c3ccc(Br)cc3c3cc(Br)ccc32)c1 (single isomer, unassigned; (+)) [(+) enantiomer of Example 62 Compound, 1-(3,6-Dibromo-9H-carbazol-9-yl)-3-(3-methoxyphenylamino)-propan-2-ol]	observed only with the (+) enantiomer		pro-neurogenic activity in the in vivo hippocampal neurogenesis assay [2]: fully retained; pro-neurogenic activity in the in vivo hippocampal neurogenesis assay ([2]; listed as (+)-enantiomer of Example 62 Compound): retained potent pro-neurogenic activity
OC(CCNc1ccccc1)Cn1c2ccc(Br)cc2c2cc(Br)ccc21 (centres unmarked) [Example 21, 1-(3,6-dibromo-9H-carbazol-9-yl)-4-(phenylamino)butan-2-ol]	displayed less protective effect		
OC(CNc1ccccc1)Cn1c2ccccc2c2ccccc21 (centres unmarked) [Example 76, 1-(9H-carbazol-9-yl)-3-(phenylamino)propan-2-ol]			pro-neurogenic activity in the in vivo hippocampal neurogenesis assay [2]: found to be active; solubility (Solubility): low solubility; pro-neurogenic activity of a commercial sample in the neurogenesis assay [3]: indistinguishable from vehicle
CN1CCN2c3ncccc3Cc3ccccc3C2C1 (centres unmarked) [mirtazapine]		did not affect the magnitude of neurogenesis	
CNCCC=C1c2ccccc2CCc2ccccc21 [nortriptyline, nortrypline]		did not affect the magnitude of neurogenesis	
NNCCc1ccccc1 [phenelzine]		~52%	
N[C@@H]1C[C@H]1c1ccccc1 (racemic) [tranylcypromine]		did not affect the magnitude of neurogenesis	
